Earlier results as cited in US10350275B2, “Methods of cytotoxic gene therapy to treat tumors” (Advantagene, Inc., priority 2013, dated 2019).

Test system: tumors
Conditions: monotherapy; Senzer et al 2009

Anti-CTLA-4: Immune checkpoint inhibitor antibody; Ipilimumab (anti-CTLA-4) approved for metastatic melanoma
complete and partial responses, share of subjects: about 10.9%
